From patent US7223733B2, “Modulation of TRIP-Br function and method of treating proliferative disorders” (National University of Singapore, priority 2004, dated 2007) come the findings set out here.

Holding throughout (assay type): cell-based, human
One data set deals with cyclins A, D and E. Briefly: Western blot of cyclins A, D and E in U2OS cells exposed to decoy peptides. As to conditions: U2OS, 5, 10 or 20 μM, 48 h. Here is the method:
(§1) Denaturing SDS-PAGE and western blotting. Proteins from whole cell lysate and IP complexes were separated using standard denaturing polyacrylamide gel electrophoresis as described previously (Hsu, S. I. H., et al. EMBO J 20, 2273-2285 (2001)).
FIG. 8: The role(s) of the TRIP-Br integrator function in cyclin E regulation. (A) Western blot analysis of the expression of cyclins A, D and E in whole cell extracts derived from U2OS cells exposed to 5, 10 or 20 μM of decoy peptides for 48 h. Cdk2 served as a loading control; (B) Dosage-dependent effects of decoy peptides on Fbxw7 expression. U2OS cells exposed to 5, 10 or 20 μM of decoy peptides were analyzed for Fbxw7 mRNA transcript levels by semi-quantitative RT-PCR. H-actin was co-amplified as an internal control; (C) cyclin-E and Fbxw7 expression was analyzed by semi-quantitative RT-PCR using total RNA from sub-confluent U2OS ER-E2F-1 cells grown with or without OHT and/or cycloheximide (CHX) for 2 h as indicated. H-actin was included as an internal control.
On the technique in general: A western blot detects proteins with antibodies after separation by electrophoresis.

A further data set concerns Geminin. Briefly: Protein decay analysis of Geminin in U2OS cells (cycloheximide). As to conditions: for Geminin steady state levels at 5-h post-CHX treatment: cycloheximide; for Geminin protein decay kinetics: cycloheximide 20 μg/ml, 0-5 h. How it is done: Protein decay analysis. Transfected or peptide-treated cells were exposed to 20 μg/ml cycloheximide (CHX). Whole cell lysates were prepared from the treated cells at 0, 1, 2, 3, 4 or 5-h post-CHX treatment for Western blot analysis. FIG. 7: Cell cycle protein expression profile and protein decay analysis. (A) Protein expression profile of U2OS cells released from nocodazole arrest in the absence or presence of decoy peptide treatment. Protein expression of various cyclins and Cdks was assessed by Western blotting using whole cell lysates from synchronized U2OS cells at 4, 8, 12, 16, 20 and 24 h after release. Coomassie-stained proteins served as loading controls; (B) U2OS cells transfected with vector backbone (vehicle) or pRc/cyclin E and pCMV/Cdk2 (1 μg each), were arrested at the G2/M boundary by exposure to nocodazole (75 ng/ml) and then released to re-enter the cell cycle. Protein expression of cyclin E and Geminin was assessed using whole cell lysates from synchronized U2OS cells at 0, 4, 8, 12, 16 and 20 h after release; (C) Protein decay analysis of Geminin expression in the absence or presence of cyclin E/Cdk2 over-expression (left panel) or in the absence or presence of decoy peptide treatment (right panel) by Western blotting (WB). Coomassie stained proteins served as the loading control (C).

The subject of another data set is PARP cleavage. Description: Western blot analysis of PARP cleavage in U2OS cells. As to conditions: 50 μM decoy peptides, 72 h. How it is done: as §1
FIG. 6: Caspase assay. (A) Caspase 3 protease activity in U2OS cells exposed to either Eto (Etoposide) for 24 h or 50 μM decoy peptides for 48 or 72 h, were assayed using the Ac-DEVD-AFC fluorogenic substrate. […] Values represent the average +/− standard deviation of two independent experiments. Control: cells cultured in normal growth medium; Vehicle: cells cultured in the presence of 0.5% DMSO; (B) Western blot analysis of PARP cleavage. U2OS cells were exposed to either Eto (Etoposide) for 24 h or 50 μM decoy peptides for 72 h. Lane 1: Vehicle cells (cultured in the presence of 0.5% DMSO for 24 h); Lane 2: 25 μM Eto; Lane 3: 250 μM Eto; Lane 4: Vehicle (cells cultured in the presence of 0.5% DMSO for 72 h); Lane 5: *SCR; Lane 6: *Br1; Lane 7: *Br2.

For the next data set, the system named is WI-38 cells. Briefly: BrdU incorporation, serum-induced S phase entry of WI-38 cells. The settings on record: WI-38, 0.1 μM, 20 h; compared to unstimulated cells. How it is done: DNA enzyme transfection. WI-38 cells were rendered quiescent by cultivation in serum-free medium for 72 h before being transfected with DNA enzyme (0.1 μM) using Superfect as reported previously (Santiago, F. S., et al. Nat Med 5, 1264-1269 (1999)) in accordance to manufacturer's recommendations (Qiagen).
Cell proliferation assays. For the BrdU incorporation assays, growth-quiescent WI-38 cells in 96-well dishes were transfected with DNA enzyme and/or 100 ng of pCMV/E2F1, pCMV/DP1, pRSV/Cyclin E, or pCMV/Cdk2 and then exposed to Bromodeoxyuridine (BrdU, 100 μM) in the presence or absence of 10% FBS for 20 h. Bromodeoxyuridine (BrdU) incorporation was monitored with a calorimetric ELISA assay using a cell proliferation kit according to manufacturer's recommendations (Boehringer Mannheim). For manual cell count, growth-quiescent WI-38 cells in 24-well dishes were transfected with DNA enzyme and then exposed to 10% FBS for 72 h. The cells were rinsed with PBS, pH 7.4, and trypsinized, and 10 μl of cell suspension was taken from each sample and mixed with equal volume of trypan blue stain (Sigma, 0.4% w/v in 1×PBS). The number of unstained cells was enumerated manually using a hemocytometer. For colony formation assays, growth-quiescent WI-38 cells in 12-well dishes were transfected with DNA enzyme and then exposed to 10% FBS for 120 h. Cells were stained in situ with crystal violet (0.75% w/v hexamethyl-p-rosaniline chloride [SIGMA], 50% ethanol, 1.75% w/v paraformaldehyde, 0.25% w/v NaCl) for 10 min, and then rinsed thoroughly with deionized water to remove excess stains.
FIG. 13: (A) E-Br1 or E-Br2 suppresses serum-inducible S phase entry. Sub-confluent WI-38 cells were serum-starved for 72 h. Following DNA enzyme transfection, the cultures were re-stimulated with serum and allowed to proliferate in BrdU labeling medium. After 20 h, cells were assayed for BrdU incorporation with a colorimetric ELISA assay. Values represent the average of at least two independent experiments. […] Sub-confluent WI-38 cells were serum-starved for 72 h. […]
(In general: Dividing cells build labelled thymidine or BrdU into new DNA.)

Where no end group is shown, it is not given here. [invdT] = inverted (3'-3') thymidine

Turning to “ERQIKIWFQNRRMKWKKTGFLTDLTLDDILFADID (ERQIKIWFQNRRMKWKKTGFLTDLTLDDILFADID-NH2) [*Br2]”, in the data set on cyclins A, D and E, the “cyclin E protein level” value is “dose-dependent accumulation of cyclin E protein”; the “protein levels of cyclin D1 and cyclin A2” value is “without affecting the protein levels”. Besides, in the data set on Geminin, the “Geminin steady state levels at 5-h post-CHX treatment” value is listed as “remained persistently high” and the “Geminin protein decay kinetics” value was “significantly slower decay rate”. In the data set with PARP cleavage, the “PARP cleavage compared to vehicle or *SCR-treated control” value is listed as “not associated with significant PARP cleavage”.

On to “5′-T TACCCAACAGGCTAGCTACAACGAATATCACA-3′ (DNA TTACCCAACAGGCTAGCTACAACGAATATCACA; DNA, 3' [invdT], backbone not given here) [E-Br2]”, for which, in the data set with WI-38 cells, the “BrdU incorporation on serum stimulation” value is recorded as “significantly inhibited”.

For the substance “5′-T TGCTCAGCAGGCTAGCTACAACGACTTGCTCA-3′ (DNA TTGCTCAGCAGGCTAGCTACAACGACTTGCTCA; DNA, 3' [invdT], backbone not given here) [E-Br1]”, the “BrdU incorporation on serum stimulation” value in the data set on WI-38 cells was “significantly inhibited”.

Regarding “ERQIKIWFQNRRMKWKKATGCLLDDGLEGLFEDID (ERQIKIWFQNRRMKWKKATGCLLDDGLEGLFEDID-NH2) [*Br1]”, in the data set on cyclins A, D and E, the “cyclin E protein level” value is “dose-dependent accumulation of cyclin E protein”; the “protein levels of cyclin D1 and cyclin A2” value is given as “without affecting the protein levels”. Besides, in the data set with Geminin, the “Geminin steady state levels at 5-h post-CHX treatment” value is on record as “remained persistently high” and the “Geminin protein decay kinetics” value is recorded as “significantly slower decay rate”. Also, in the data set on PARP cleavage, the “PARP cleavage compared to vehicle or *SCR-treated control” value is “not associated with significant PARP cleavage”.
